Converted amounts (≈) assume the structure as drawn.
Tests used:
Staphylococcus aureus = test: Antibacterial activity against Staphylococcus aureus NBRC 100910 after 12 hrs by MTT assay; type: functional; settings: NBRC 100910, 12 h
Escherichia coli = test: Antibacterial activity against Escherichia coli NBRC 102203 after 12 hrs by MTT assay; type: functional; settings: NBRC 102203, 12 h
WI-38 = test: Cytotoxicity against human WI38 cells assessed as decrease in cell viability after 72 hrs by WST8 assay; type: cell-based; settings: WI-38, 72 h
MCF7 = test: Cytotoxicity against human MCF7 cells assessed as decrease in cell viability after 72 hrs by WST8 assay; type: functional, cell-based; settings: MCF7, 72 h
Klebsiella pneumoniae = test: Antibacterial activity against Klebsiella pneumoniae NBRC 14940 after 12 hrs by MTT assay; type: functional; settings: NBRC 14940, 12 h
A549 = test: Cytotoxicity against human A549 cells assessed as decrease in cell viability after 72 hrs by WST8 assay; type: functional, cell-based; settings: A549, 72 h
Bacillus subtilis = test: Antibacterial activity against Bacillus subtilis NBRC 13719 after 12 hrs by MTT assay; type: functional; settings: NBRC 13719, 12 h
HeLa = test: Cytotoxicity against human HeLa cells assessed as decrease in cell viability after 72 hrs by WST8 assay; type: functional, cell-based

Compound | MIC (Staphylococcus aureus) | MIC (Escherichia coli) | IC50 (WI-38) | IC50 (MCF7) | MIC (Klebsiella pneumoniae) | IC50 (A549) | MIC (Bacillus subtilis) | IC50 (HeLa)
C=C1CCC[C@@H]2[C@@](C=O)(Cc3cc(C(=O)OC)cc(OC)c3O)[C@H](C)CC[C@@]12C | > 100 µM | > 100 µM | > 50 µM | > 50 µM | > 100 µM | > 50 µM | > 100 µM | > 50 µM
O=c1[nH]cc(F)c(=O)[nH]1 [FLUOROURACIL] | – | – | 6.8 µM | 5.6 µM | – | 4.7 µM | – | 5.3 µM
C=C1CCC[C@H]2[C@](C)(CC3=C(O)C(=O)C=C(NCC(C)CC)C3=O)[C@@H](C)CC[C@]12C (some centres not stated) | 6.25 µM (≈ 2.59 µg/mL) | > 100 µM | 6.9 µM | 7.6 µM | > 100 µM | 8.9 µM | 6.25 µM (≈ 2.59 µg/mL) | 4.8 µM
C=C1CCC[C@H]2[C@](C)(CC3=C(O)C(=O)C=C(OCCCC)C3=O)[C@@H](C)CC[C@]12C | 12.5 µM (≈ 5.01 µg/mL) | > 100 µM | 8.2 µM | 9.6 µM | > 100 µM | 6.6 µM | 6.25 µM (≈ 2.5 µg/mL) | 7.6 µM
C=C1CCC[C@@H]2[C@@](C)(Cc3cc(C(=O)OC)cc(O)c3O)[C@H](C)CC[C@@]12C | 6.25 µM (≈ 2.33 µg/mL) | > 100 µM | > 50 µM | > 50 µM | > 100 µM | > 50 µM | 6.25 µM (≈ 2.33 µg/mL) | > 50 µM
CC1(C)S[C@@H]2[C@H](NC(=O)[C@H](N)c3ccccc3)C(=O)N2[C@H]1C(=O)O [AMPICILLIN] | 6.25 µM (≈ 2.18 µg/mL) | – | – | – | – | – | 6.25 µM (≈ 2.18 µg/mL) | –
C=C1CCC[C@H]2[C@](C)(CC3=C(O)C(=O)C=C(NCCCSC)C3=O)[C@@H](C)CC[C@]12C | 12.5 µM (≈ 5.4 µg/mL) | > 100 µM | 8.8 µM | 8.7 µM | > 100 µM | 6.2 µM | 12.5 µM (≈ 5.4 µg/mL) | 8 µM
C=C1CCC[C@H]2[C@](C)(CC3=C(O)C(=O)C=C(NCCc4ccccc4)C3=O)[C@@H](C)CC[C@]12C | 6.25 µM (≈ 2.8 µg/mL) | > 100 µM | 3 µM | 6.5 µM | > 100 µM | 4 µM | 6.25 µM (≈ 2.8 µg/mL) | 5 µM
C=C1CCC[C@@H]2[C@@](CO)(Cc3cc(C(=O)OC)cc(OC)c3O)[C@H](C)CC[C@@]12C | > 100 µM | > 100 µM | > 50 µM | 42.6 µM | > 100 µM | > 50 µM | > 100 µM | > 50 µM
C=C1CCC[C@@H]2[C@@](C)(Cc3cc(C(=O)OC)c(O)c(OC)c3O)[C@H](C)CC[C@@]12C | > 100 µM | > 100 µM | > 50 µM | > 50 µM | > 100 µM | > 50 µM | 12.5 µM (≈ 5.03 µg/mL) | > 50 µM
C=C1CCC[C@@H]2[C@@](CO)(Cc3cc(C(=O)OC)c(O)c(OC)c3O)[C@H](C)CC[C@@]12C | > 100 µM | > 100 µM | 42.1 µM | > 50 µM | > 100 µM | > 50 µM | > 100 µM | > 50 µM
C=C1CCC[C@@H]2[C@@](C)(Cc3cc(C(=O)OC)cc(OC)c3O)[C@H](C)CC[C@@]12C | > 100 µM | > 100 µM | > 50 µM | > 50 µM | > 100 µM | > 50 µM | > 100 µM | > 50 µM
NC[C@H]1O[C@H](O[C@H]2[C@H](O)[C@@H](O[C@H]3O[C@H](CO)[C@@H](O)[C@H](N)[C@H]3O)[C@H](N)C[C@@H]2N)[C@H](O)[C@@H](O)[C@@H]1O [KANAMYCIN] | – | 12.5 µM (≈ 6.06 µg/mL) | – | – | 6.25 µM (≈ 3.03 µg/mL) | – | – | –
C=C1CCC[C@@H]2[C@@](C=O)(Cc3cc(C(=O)OC)c(O)c(OC)c3O)[C@H](C)CC[C@@]12C | > 100 µM | > 100 µM | 8.7 µM | 5 µM | > 100 µM | 7.8 µM | 25 µM (≈ 10.4 µg/mL) | 7.2 µM
C=C1CCC[C@H]2[C@](C)(CC3=C(O)C(=O)C=C(OC)C3=O)[C@@H](C)CC[C@]12C [ILIMAQUINONE] | 6.25 µM (≈ 2.24 µg/mL) | > 100 µM | 9.7 µM | 8.3 µM | > 100 µM | 5.9 µM | 6.25 µM (≈ 2.24 µg/mL) | 7.6 µM
C=C1CCC[C@H]2[C@](C)(CC3=C(O)C(=O)C=C(NCC(C)C)C3=O)[C@@H](C)CC[C@]12C | 25 µM (≈ 9.99 µg/mL) | > 100 µM | 3.5 µM | 4.6 µM | > 100 µM | 6.7 µM | 12.5 µM (≈ 4.99 µg/mL) | 7.6 µM

Source: ChEMBL document CHEMBL4020801, “New merosesquiterpenes from a Vietnamese marine sponge of Spongia sp. and their biological activities” (Bioorg Med Chem Lett, 2017)
